Read-outs that look alike come from different tables or passages of the source.
Target: T1, human complement factor D (Homo sapiens, UniProt P00746)
T1 construct: purchased R&D Systems 1824-SE
Assay: In vitro enzyme inhibition of human complement factor D (Z-Lys-SBzl/DTNB, A405)
Type: biochemical
Description: The ability of the compounds disclosed herein to inhibit human complement factor D inhibitory activity was quantified according to the 12-step protocol provided below. • 1. Prepare assay buffer: 50 mM Tris/HCl, pH 7.5, 1 M NaCl. • 2. […] Then dilute the serial concentrations of Nafamostat Mesilate 20-fold in assay buffer. • 3. […] 0.5% DMSO was in each well finally. • 4. […] Add 10 μl diluted test compounds duplicated into the 96-well plate. […] 0.5% DMSO was in each well finally. • 6. Dilute 20 mM substrate Z-Lys-SBzl (Bachem, Cat# M-1300) to 200 μM in assay buffer with 200 μM DTNB (Sigma, Catalog# D8130). • 7. […] Add 40 μl diluted Complement Factor D in the 96-well plate. • 8. Positive control well contains Complement Factor D without test compound. Negative control well contains neither Complement Factor D nor test compound. Using assay buffer, bring the total volume of all controls to 50 al. • 9. Pre-incubate the plate for 5 min at room temperature. • 10. Add 50 μl of diluted substrate/DTNB mixture into each well. […] For kinetic reading: Immediately start measuring absorbance (A405 nm) continuously and record data every 30 sec for 60 min. • 12. Data analysis • Inhibition activity of compound was evaluated by IC50. IC50 was calculated according the dose-response curve of compound fitted using GraphPadPrism with “log(inhibitor)-response (variable slope)” equation. • % inhibition was calculated by using following equation:
[formula] • Mean(NC): The average value of the negative control wells' A405 nm values. • Mean(PC): The average value of the positive control wells' A405 nm values.

[1] = biochemical assay, substrate Z-Lys-SBzl, read-out: CFD IC50

T1 sequence (P00746 26-253): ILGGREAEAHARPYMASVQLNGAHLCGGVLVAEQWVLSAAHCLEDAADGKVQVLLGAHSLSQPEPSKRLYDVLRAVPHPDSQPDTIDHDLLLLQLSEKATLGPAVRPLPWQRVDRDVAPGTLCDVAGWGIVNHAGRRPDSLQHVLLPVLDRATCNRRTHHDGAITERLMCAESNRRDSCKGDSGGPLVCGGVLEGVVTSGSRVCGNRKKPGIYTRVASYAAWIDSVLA

IC50 [1] [nM]	SMILES	IC50 [nM]
100 to 1000	CCN(CC(=O)Nc1cccc(Cl)n1)C(=O)Cn1nc(C(N)=O)c2ccccc21 [Example 15, 1-(2-((2-((6-chloropyridin-2-yl)amino)-2-oxoethyl)(ethyl)amino)-2-oxoethyl)-1H-indazole-3-carboxamide]	–
100 to 1000	NC(=O)c1ccc2c(c1)c(C(N)=O)nn2CC(=O)N(CC(=O)NCc1cccc(Cl)c1F)C1CC1 [Example 93, 1-(2-((2-((3-chloro-2-fluorobenzyl)amino)-2-oxoethyl)(cyclopropyl)amino)-2-oxoethyl)-1H-indazole-3,5-dicarboxamide]	–
1000 to 10000	NC(=O)c1nn(CC(=O)N(CC(=O)NCc2cccc(Cl)c2F)Cc2ccncc2)c2ccccc12 [Example 32, 1-(2-((2-((3-chloro-2-fluorobenzyl)amino)-2-oxoethyl)(pyridin-4-ylmethyl)amino)-2-oxoethyl)-1H-indazole-3-carboxamide]	–
1000 to 10000	NC(=O)c1nn(CC(=O)N(CC(=O)NCc2cccc(C(F)(F)F)c2F)C2CC2)c2ccccc12 [Example 136, 1-(2-(cyclopropyl(2-((2-fluoro-3-(trifluoromethyl)benzyl)amino)-2-oxoethyl)amino)-2-oxoethyl)-1H-indazole-3-carboxamide]	–
100 to 1000	CC(N(CC(=O)NCc1cccc(Cl)c1F)C(=O)Cn1nc(C(N)=O)c2ccccc21)C(C)(C)C (centres unmarked) [Example 64, 1-(2-((2-((3-chloro-2-fluorobenzyl)amino)-2-oxoethyl)(3,3-dimethylbutan-2-yl)amino)-2-oxoethyl)-1H-indazole-3-carboxamide]	–
1000 to 10000	NC(=O)CC(C1CC1)N(CC(=O)NCc1cccc(Cl)c1F)C(=O)Cn1nc(C(N)=O)c2ccccc21 (centres unmarked) [Example 75, 1-(2-((3-amino-1-cyclopropyl-3-oxopropyl)(2-((3-chloro-2-fluorobenzyl)amino)-2-oxoethyl)amino)-2-oxoethyl)-1H-indazole-3-carboxamide]	–
1000 to 10000	NC(=O)c1ccc(CNC(=O)CN(C(=O)Cn2nc(C(N)=O)c3ccccc32)C2CC2)c(F)c1 [Example 117, 1-(2-((2-((4-carbamoyl-2-fluorobenzyl)amino)-2-oxoethyl)(cyclopropyl)amino)-2-oxoethyl)-1H-indazole-3-carboxamide]	–
100 to 1000	CCOC(=O)CC(C)N(CC(=O)NCc1cccc(Cl)c1F)C(=O)Cn1nc(C(N)=O)c2ccccc21 (centres unmarked) [Example 72, ethyl 3-(2-(3-carbamoyl-1H-indazol-1-yl)-N-(2-((3-chloro-2-fluorobenzyl)amino)-2-oxoethyl)acetamido)butanoate]	–
> 10000	NC(=O)c1nn(CC(=O)N(CC(=O)Nc2cccc(Cl)n2)Cc2ccncc2)c2ccccc12 [Example 25, 1-(2-((2-((6-chloropyridin-2-yl)amino)-2-oxoethyl)(pyridin-4-ylmethyl)amino)-2-oxoethyl)-1H-indazole-3-carboxamide]	–
1000 to 10000	Cc1cc(Cl)cc(CNC(=O)CN(C(=O)Cn2nc(C(N)=O)c3ccccc32)C2CC2)c1 [Example 129, 1-(2-((2-((3-chloro-5-methylbenzyl)amino)-2-oxoethyl)(cyclopropyl)amino)-2-oxoethyl)-1H-indazole-3-carboxamide]	–
1000 to 10000	NC(=O)c1nn(CC(=O)N(CC(=O)NCc2ccccc2F)C2CC2)c2ccccc12 [Example 115, 1-(2-(cyclopropyl(2-((2-fluorobenzyl)amino)-2-oxoethyl)amino)-2-oxoethyl)-1H-indazole-3-carboxamide]	–
1000 to 10000	C[C@@H](C(=O)NCc1cccc(Cl)c1F)N(C)C(=O)Cn1nc(C(N)=O)c2ccccc21 [Example 3, (S)-1-(2-((1-((3-chloro-2-fluorobenzyl)amino)-1-oxopropan-2-yl)(methyl)amino)-2-oxoethyl)-1H-indazole-3-carboxamide]	–
100 to 1000	NC(=O)c1nn(CC(=O)N(CC(=O)Nc2cccc(Cl)c2F)C2CC2)c2ccccc12 [Example 7, 1-(2-((2-((3-chloro-2-fluorophenyl)amino)-2-oxoethyl)(cyclopropyl)amino)-2-oxoethyl)-1H-indazole-3-carboxamide]	–
1000 to 10000	NC(=O)c1nn(CC(=O)N(CC(=O)NCc2cc(Cl)cc(C(F)(F)F)c2)C2CC2)c2ccccc12 [Example 124, 1-(2-((2-((3-chloro-5-(trifluoromethyl)benzyl)amino)-2-oxoethyl)(cyclopropyl)amino)-2-oxoethyl)-1H-indazole-3-carboxamide]	–
100 to 1000	NC(=O)c1nn(CC(=O)N(CC(=O)NCc2cccc(Cl)c2Cl)C2CC2)c2ccccc12 [Example 106, 1-(2-(cyclopropyl(2-((2,3-dichlorobenzyl)amino)-2-oxoethyl)amino)-2-oxoethyl)-1H-indazole-3-carboxamide]	–
–	CC(CCO)N(CC(=O)NCc1cccc(Cl)c1F)C(=O)Cn1nc(C(N)=O)c2ccccc21 (centres unmarked) [Example 57, 1-(2-((2-((3-chloro-2-fluorobenzyl)amino)-2-oxoethyl)(4-hydroxybutan-2-yl)amino)-2-oxoethyl)-1H-indazole-3-carboxamide]	100 to 1000
1000 to 10000	NC(=O)c1nn(CC(=O)N(CC(=O)NCc2cccc(Cl)c2F)C2CCNC2)c2ccccc12 (centres unmarked) [Example 37, 1-(2-((2-((3-chloro-2-fluorobenzyl)amino)-2-oxoethyl)(pyrrolidin-3-yl)amino)-2-oxoethyl)-1H-indazole-3-carboxamide]	–
1000 to 10000	NC(=O)c1cc(C(N)=O)n(CC(=O)N(CC(=O)NCc2cccc(Cl)c2F)C2CC2)n1 [Example 45, 1-(2-((2-((3-chloro-2-fluorobenzyl)amino)-2-oxoethyl)(cyclopropyl)amino)-2-oxoethyl)-1H-pyrazole-3,5-dicarboxamide]	–
1000 to 10000	NC(=O)c1nn(CC(=O)N(CC(=O)NCc2cccc(Cl)c2F)C(CO)C2CC2)c2ccccc12 (centres unmarked) [Example 69, 1-(2-((2-((3-chloro-2-fluorobenzyl)amino)-2-oxoethyl)(1-cyclopropyl-2-hydroxyethyl)amino)-2-oxoethyl)-1H-indazole-3-carboxamide]	–
1000 to 10000	NC(=O)c1nn(CC(=O)N(CC(=O)NCc2cccc(Cl)c2F)C(CC(=O)O)C(F)(F)F)c2ccccc12 (centres unmarked) [Example 79, 3-(2-(3-carbamoyl-1H-indazol-1-yl)-N-(2-((3-chloro-2-fluorobenzyl)amino)-2-oxoethyl)acetamido)-4,4,4-trifluorobutanoic acid]	–
1000 to 10000	C[C@H](C(=O)NCc1cccc(Cl)c1F)N(C(=O)Cn1nc(C(N)=O)c2ccccc21)C1CC1 [Example 38, (R)-1-(2-((1-((3-chloro-2-fluorobenzyl)amino)-1-oxopropan-2-yl)(cyclopropyl)amino)-2-oxoethyl)-1H-indazole-3-carboxamide]	–
1000 to 10000	NC(=O)c1nn(CC(=O)N(CC(=O)NCc2cc(Cl)c3cn[nH]c3c2)C2CC2)c2ccccc12 [Example 102, 1-(2-((2-(((4-chloro-1H-indazol-6-yl)methyl)amino)-2-oxoethyl)(cyclopropyl)amino)-2-oxoethyl)-1H-indazole-3-carboxamide]	–
100 to 1000	NC(=O)c1nn(CC(=O)N(CC(=O)NCc2cccc(Cl)c2)C2CC2)c2ccccc12 [Example 112, 1-(2-((2-((3-chlorobenzyl)amino)-2-oxoethyl)(cyclopropyl)amino)-2-oxoethyl)-1H-indazole-3-carboxamide]	–

From patent publication US20190292155A1, “THERAPEUTIC INHIBITORY COMPOUNDS” (LifeSci Pharmaceuticals, Inc., priority 2016, published 2019)
